Article PMC8851638 (ACS Omega, 2022)
≈ marks a conversion by molar mass, not a printed value. Where “and” joins values, the source holds several entries; their conditions need not be identical. Equal entries are not always repeated.

Tests used:
[1] = system: A. baumannii (MDR00521); assay: MIC and MBC by broth microdilution; assay type: cell-based; conditions: ratio in parentheses
[2] = system: B. subtilis; assay: Single-step resistance selection; assay type: cell-based; conditions: 4 × MIC, 48 h
[3] = system: E. coli (MDR00501); assay: MIC and MBC by broth microdilution; assay type: cell-based
[4] = system: C. albicans100; assay: Checkerboard combination assay with Ketoconazole; assay type: cell-based, Candida albicans
[5] = system: S. aureus (MDR00231); assay: MIC and MBC by broth microdilution; assay type: cell-based, Staphylococcus aureus
[6] = In vitro cytotoxicity on normal cell line; assay type: cell-based, rat; conditions: rat, H9C2 heart/myocardium cells
[7] = system: H9C2: rat heart/myocardium; assay: In vitro cytotoxicity on normal cell line; assay type: cell-based
[8] = system: E. coli; assay: Time-kill kinetic assay; assay type: cell-based
[9] = system: K. pneumoniae (MDR00244); assay: MIC and MBC by broth microdilution; assay type: cell-based; conditions: ratio in parentheses
[10] = system: B. subtilis; assay: Checkerboard combination assay with Ciprofloxacin; assay type: cell-based
[11] = system: C. albicans200 (MDR00200); assay: Agar well-diffusion antimicrobial sensitivity assay; assay type: cell-based, Candida albicans; conditions: Candida albicans, read-out: Inhibition Zone (IZ)
[12] = system: S. epidermidis (MDR00223); assay: as above; assay type: cell-based, Staphylococcus epidermidis; conditions: Staphylococcus epidermidis, read-out: Inhibition Zone (IZ)
[13] = system: S. epidermidis; assay: Single-step resistance selection; assay type: cell-based, Staphylococcus epidermidis; conditions: 4 × MIC, 48 h
[14] = system: C. albicans200; assay: Single-step resistance selection; assay type: cell-based, Candida albicans; conditions: 4 × MIC, 48 h
[15] = system: S. aureus; assay: Checkerboard combination assay with Ciprofloxacin; assay type: cell-based, Staphylococcus aureus
[16] = system: E. coli; assay: Checkerboard combination assay with Ciprofloxacin; assay type: cell-based
[17] = system: Vero: green monkey kidney; assay: In vitro cytotoxicity on normal cell line; assay type: cell-based
[18] = In vitro cytotoxicity on normal cell line; assay type: cell-based, green monkey; conditions: green monkey, Vero kidney cells
[19] = system: RBCs; assay: Hemolytic assay; assay type: cell-based; conditions: human RBCs; compounds 1.0 mg/mL; Triton X-100 0.1% v/v; 37 °C, 35 min
[20] = system: S. aureus; assay: Time-kill kinetic assay; assay type: cell-based, Staphylococcus aureus
[21] = system: S. epidermidis biofilm; assay: Staphylococcus biofilm mass reduction; assay type: cell-based; conditions: at their MIC
[22] = system: E. coli (MDR00501); assay: Agar well-diffusion antimicrobial sensitivity assay; assay type: cell-based; conditions: Escherichia coli, read-out: Inhibition Zone (IZ)
[23] = system: C. albicans200 (MDR00200); assay: MIC and MFC by broth microdilution; assay type: cell-based, Candida albicans
[24] = system: B. subtilis; assay: Time-kill kinetic assay; assay type: cell-based; conditions: 2 × MIC
[25] = system: A. baumannii; assay: Time-kill kinetic assay; assay type: cell-based; conditions: 2 × MIC
[26] = system: S. epidermidis; assay: Time-kill kinetic assay; assay type: cell-based, Staphylococcus epidermidis; conditions: 2 × MIC
[27] = system: A. baumannii; assay: Checkerboard combination assay with Ciprofloxacin; assay type: cell-based
[28] = system: S. aureus biofilm; assay: Staphylococcus biofilm mass reduction; assay type: cell-based; conditions: at their MIC
[29] = system: clinical pathogenic isolates; assay: Single-step resistance selection, whole panel; assay type: cell-based; conditions: 4 × MIC
[30] = system: C. albicans200; assay: Checkerboard combination assay with Ketoconazole; assay type: cell-based, Candida albicans
[31] = system: E. coli; assay: Single-step resistance selection; assay type: cell-based; conditions: 4 × MIC, 48 h
[32] = system: S. epidermidis (MDR00223); assay: MIC and MBC by broth microdilution; assay type: cell-based, Staphylococcus epidermidis
[33] = system: B. subtilis (MDR00423); assay: MIC and MBC by broth microdilution; assay type: cell-based
[34] = system: K. pneumoniae; assay: Checkerboard combination assay with Ciprofloxacin; assay type: cell-based
[35] = system: S. aureus; assay: Single-step resistance selection; assay type: cell-based, Staphylococcus aureus; conditions: 4 × MIC, 48 h
[36] = system: K. pneumoniae; assay: Time-kill kinetic assay; assay type: cell-based; conditions: 2 × MIC
[37] = system: C. albicans100 (MDR00100); assay: MIC and MFC by broth microdilution; assay type: cell-based, Candida albicans
[38] = system: all the pathogenic isolates tested; assay: Time-kill kinetic assay, whole panel; assay type: cell-based
[39] = system: C. albicans100 (MDR00100); assay: Agar well-diffusion antimicrobial sensitivity assay; assay type: cell-based, Candida albicans; conditions: Candida albicans, read-out: Inhibition Zone (IZ)
[40] = In vitro cytotoxicity on normal cell line; assay type: cell-based, mouse; conditions: mouse, BNL normal liver cells
[41] = system: BNL: mouse normal liver cells; assay: In vitro cytotoxicity on normal cell line; assay type: cell-based
[42] = system: S. epidermidis; assay: Checkerboard combination assay with Ciprofloxacin; assay type: cell-based, Staphylococcus epidermidis
[43] = system: K. pneumoniae; assay: Single-step resistance selection; assay type: cell-based; conditions: 4 × MIC, 48 h
[44] = system: A. baumannii; assay: Single-step resistance selection; assay type: cell-based; conditions: 4 × MIC, 48 h
[45] = system: C. albicans100; assay: Single-step resistance selection; assay type: cell-based, Candida albicans; conditions: 4 × MIC, 48 h
[46] = system: S. aureus (MDR00231); assay: Agar well-diffusion antimicrobial sensitivity assay; assay type: cell-based, Staphylococcus aureus; conditions: Staphylococcus aureus, read-out: Inhibition Zone (IZ)
[47] = target: T1, dihydrofolate reductase (DHFR) (Homo sapiens, UniProt P00374); assay: DHFR inhibition; assay type: biochemical
T1 sequence (P00374 1-187): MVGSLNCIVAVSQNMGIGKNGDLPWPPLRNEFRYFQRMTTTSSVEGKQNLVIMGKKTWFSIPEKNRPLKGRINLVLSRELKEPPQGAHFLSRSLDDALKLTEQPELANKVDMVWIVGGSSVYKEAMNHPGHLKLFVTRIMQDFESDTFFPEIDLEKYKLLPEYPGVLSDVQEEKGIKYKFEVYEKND

[48] = target: E. coli DNA gyrase (Escherichia coli, UniProt P0AES4+P0AES6); assay: DNA gyrase inhibition; assay type: biochemical
E. coli DNA gyrase, sequence (P0AES4 whole entry, one chain of several): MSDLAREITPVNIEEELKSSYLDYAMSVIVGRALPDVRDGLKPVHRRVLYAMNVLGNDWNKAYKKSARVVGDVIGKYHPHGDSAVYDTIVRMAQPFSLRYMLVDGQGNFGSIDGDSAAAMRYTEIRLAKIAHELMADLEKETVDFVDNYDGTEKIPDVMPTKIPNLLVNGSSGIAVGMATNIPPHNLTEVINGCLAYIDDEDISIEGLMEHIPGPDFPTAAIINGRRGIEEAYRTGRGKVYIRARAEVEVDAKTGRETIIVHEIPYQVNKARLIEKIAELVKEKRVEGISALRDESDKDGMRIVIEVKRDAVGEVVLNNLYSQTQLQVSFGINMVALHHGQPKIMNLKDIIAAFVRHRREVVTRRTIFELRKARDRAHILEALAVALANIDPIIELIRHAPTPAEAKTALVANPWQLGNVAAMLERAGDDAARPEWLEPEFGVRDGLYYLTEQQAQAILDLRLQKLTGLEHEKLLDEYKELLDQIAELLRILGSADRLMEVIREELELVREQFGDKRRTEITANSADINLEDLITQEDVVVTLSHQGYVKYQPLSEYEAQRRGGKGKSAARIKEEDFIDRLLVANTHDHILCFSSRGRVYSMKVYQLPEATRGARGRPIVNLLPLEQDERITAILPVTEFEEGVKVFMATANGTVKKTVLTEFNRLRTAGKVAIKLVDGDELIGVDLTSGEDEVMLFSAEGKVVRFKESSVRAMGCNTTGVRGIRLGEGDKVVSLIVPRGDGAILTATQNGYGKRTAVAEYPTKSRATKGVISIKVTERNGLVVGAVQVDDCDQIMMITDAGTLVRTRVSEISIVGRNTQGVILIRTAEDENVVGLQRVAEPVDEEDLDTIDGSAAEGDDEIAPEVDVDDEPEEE

SMILES: CCOC(=O)c1c(N)csc1-c1cn(-c2ccccc2)nc1-c1ccc(C)cc1 [Compound 7b, Ethyl 4-Amino-2-(1-phenyl-3-(p-tolyl)-1H-pyrazol-4-yl)thiophene-3-carboxylate]
- MBC/MIC [1]: 1
- Single-step resistance frequency (mutation frequency) [2]: 1.30 × 10^–7
- MBC/MIC ([3]; E. coli, ratio in parentheses): 0.5
- MIC ([3]; Escherichia coli, read-out: MIC (mean ± SEM), E. coli, broth microdilution): 0.23 ± 0.1 mg/L (≈ 0.57 µM)
- combination effect [4]: S (S: synergism)
- fractional inhibitory concentration index (FICI) [4]: 0.5
- MBC/MIC ([5]; S. aureus, ratio in parentheses): 0.5
- MIC ([5]; Staphylococcus aureus, read-out: MIC (mean ± SEM), S. aureus, broth microdilution): 0.22 ± 0.3 mg/L (≈ 0.545 µM)
- IC50 at 72 h [6]: 102 ± 1.39 µM
- Selectivity index against DHFR ([7]; IC50 of H9C2 / IC50 of DHFR): 195.44
- Selectivity index against DNA gyrase ([7]; IC50 of H9C2 / IC50 of DNA gyrase): 8.28
- time of maximum reduction ([8]; 1/2 × MIC): 24 h
- time after which cells were rapidly reduced ([8]; 2 × MIC): 4 h
- MBC/MIC [9]: 1
- combination effect [10]: S (S: synergism)
- fractional inhibitory concentration index (FICI) [10]: 0.5
- zone of inhibition at 100000 µg/mL [11]: 32 ± 0.32 mm
- zone of inhibition at 100000 µg/mL [12]: 31 ± 0.16 mm
- Single-step resistance frequency (mutation frequency) [13]: 1.62 × 10^–6
- Single-step resistance frequency (mutation frequency) [14]: 3.10 × 10^–6
- combination effect [15]: S (S: synergism)
- fractional inhibitory concentration index (FICI) [15]: 0.25
- combination effect [16]: S (S: synergism)
- fractional inhibitory concentration index (FICI) [16]: 0.5
- Selectivity index against DHFR ([17]; IC50 of Vero / IC50 of DHFR): 151.61
- Selectivity index against DNA gyrase ([17]; IC50 of Vero / IC50 of DNA gyrase): 6.42
- IC50 at 72 h [18]: 78.8 ± 1.1 µM
- %lysis of RBCs [19]: 3.23% and 3.23 ± 0.58%
- time of maximum reduction ([20]; 1/2 × MIC): 24 h
- time after which cells were rapidly reduced ([20]; 2 × MIC): 8 h
- reduction of biofilm formation [21]: 58%
- zone of inhibition at 100000 µg/mL [22]: 30 ± 0.5 mm
- MFC/MIC ([23]; C. albicans200, ratio in parentheses): 0.5
- MIC ([23]; Candida albicans, read-out: MIC (mean ± SEM), C. albicans200, broth microdilution): 0.23 ± 0.3 mg/L (≈ 0.57 µM)
- time after which cells were rapidly reduced [24]: 12 h
- time after which cells were rapidly reduced [25]: 8 h
- time after which cells were rapidly reduced [26]: 12 h
- combination effect [27]: S (S: synergism)
- fractional inhibitory concentration index (FICI) [27]: 0.25
- reduction of biofilm formation [28]: 67%
- mutation frequency, range over panel [29]: 1.34 × 10^–6 to 1.67 × 10^–7
- combination effect [30]: S (S: synergism)
- Single-step resistance frequency (mutation frequency) [31]: 1.90 × 10^–6
- MBC/MIC ([32]; S. epidermidis, ratio in parentheses): 0.5
- MIC ([32]; Staphylococcus epidermidis, read-out: MIC (mean ± SEM), S. epidermidis, broth microdilution): 0.24 ± 0.2 mg/L (≈ 0.595 µM)
- MBC/MIC ([33]; B. subtilis, ratio in parentheses): 1
- MIC ([33]; Bacillus subtilis, read-out: MIC (mean ± SEM), B. subtilis, broth microdilution): 0.23 ± 0.6 mg/L (≈ 0.57 µM)
- combination effect [34]: S (S: synergism)
- fractional inhibitory concentration index (FICI) [34]: 0.5
- Single-step resistance frequency (mutation frequency) [35]: 1.34 × 10^–6
- time after which cells were rapidly reduced [36]: 12 h
- MFC/MIC ([37]; C. albicans100, ratio in parentheses): 1
- MIC ([37]; Candida albicans, read-out: MIC (mean ± SEM), C. albicans100, broth microdilution): 0.25 ± 0.2 mg/L (≈ 0.62 µM)
- reduction in the viable cell count relative to the initial inoculum [38]: ≥ 3 log10
- zone of inhibition at 100000 µg/mL [39]: 31 ± 0.11 mm
- IC50 at 72 h [40]: 103 ± 1.51 µM
- Selectivity index against DHFR ([41]; IC50 of BNL / IC50 of DHFR): 198.65
- Selectivity index against DNA gyrase ([41]; IC50 of BNL / IC50 of DNA gyrase): 8.41
- combination effect [42]: S (S: synergism)
- fractional inhibitory concentration index (FICI) [42]: 0.25
- Single-step resistance frequency (mutation frequency) [43]: 1.67 × 10^–7
- Single-step resistance frequency (mutation frequency) [44]: 2.11 × 10^–6
- Single-step resistance frequency (mutation frequency) [45]: 2.51 × 10^–6
- zone of inhibition at 100000 µg/mL [46]: 33 ± 0.32 mm
- IC50 [47]: 0.52 ± 0.2 µM
- IC50 [48]: 12.3 ± 0.34 µM
